{
  "source": "paper PMC12363935",
  "about": "“Unc-51 Like Kinase 3 (ULK3) is essential for autophagy and cell survival in multiple myeloma” (Research Square, 2025)",
  "key": {"[1]": {"test_system": "CD138+ cells isolated from RRMM patient Pt1050", "assay": "Immunoblot densitometry, patient cells", "format": "cell-based, human", "conditions": "Pt1050, 1μM; for ULK3 densitometry: CTRL 0.03; for ULK1 densitometry: CTRL 0.28", "protocol": "(§1) Figure 7. MA9–060 treatment compromises the survival of patient NDMM and RRMM cells ex vivo. A. Representative viability (live cell imaging) response of CD138^+ cells from NDMM patient (Pt620) cultured and tested in autologous stromal microenvironment in EMMA’s ex vivo platform, exposed to three different concentrations of MA9–060 (0.7, 2.2, 6.7 μM). […] (not shown here – 20 μM). B. Ex vivo EMMA platform assay to quantify the chemosensitivity of primary CD138^+ MM cells plated in a collagen matrix with bone marrow stroma and patient plasma. […] C. […] H. Immunoblot showing levels of indicated proteins in CD138^+ cells isolated from RRMM patients (Pt971, Pt1050). Pt1050 CD138^+ cells were assessed for ULK3-mediated autophagy related proteins (ATGs), following treatment with MA9–060 (1μM at 2 and 6 hours).\n157 5872S). Protein concentration was quantified by Thermo Scientific™ Pierce™ BCA™ Protein\n30 μg protein was loaded to 10%-15% gel and ran at\n159 100V for 2 hours. Later protein was transferred to PVDF membrane and blocked with 5% skimmed\n160 milk in TBST (10 mM Tris/HCl pH8.0, 0.12M NaCl, 0.1% Tween 20) containing 5% BSA [8] for\n163 at 4°C overnight. Membranes were washed 3 times,10 minutes with TBS. Then incubated with\n164 appropriate secondary antibodies at 1:1000 ratio in skimmed milk or 2% BSA. The membranes\n165 were washed again 3 times for 10 minutes with TBST. ECL reagents were added to the membrane\n166 and blot was developed by LICOR Imaging Studio.\n167 All immunoblotting assays were performed at least in three replicates and representative\n168 images are shown. Commercially available antibodies and their dilutions are listed in\n169 Supplementary Table 5. Immunoblotting images were acquired and quantified using LICOR\n170 Image Studio Quant software. […]"}, "[2]": {"test_system": "co-cultured stromal cells", "assay": "EMMA ex vivo platform, co-cultured stroma", "format": "cell-based", "conditions": "highest concentration 20 μM", "protocol": "as §1\n402 aspirate cells were enriched for CD138+ expression using Miltenyi (Bergisch Gladbach, Germany)\n403 130-051-301 antibody-conjugated magnetic beads. MM cells (CD138+) were seeded in Corning\n404 Cell BIND 384 well plates (Corning, NY) with collagen I and previously established human-\n405 derived stroma, containing approximately 4000 MM cells and 1000 stromal cells. Each well was\n406 filled with 80μL of RPMI 1640 media supplemented with fetal bovine serum (FBS, heat […]\n422 images acquired for each well, we quantified non-destructively, and without the need to separate […]"}},
  "data": [
    {"smiles": "Cc1cnc(Nc2ccc(C3CCN(C)CC3)c(F)c2)nc1Nc1ccc(Cl)c(NS(=O)(=O)C(C)(C)C)c1", "note": "[MA9060]", "values": [
      {"measurement": "ULK3 densitometry", "setting": "[1]; 2h", "result": 0.03},
      {"measurement": "ULK1 densitometry", "setting": "[1]; 2h", "result": 0.67},
      {"measurement": "ULK3 densitometry", "setting": "[1]; 6h", "result": 0.03},
      {"measurement": "ULK1 densitometry", "setting": "[1]; 6h", "result": 0.35},
      {"measurement": "toxicity for co-cultured stromal cells", "setting": "[2]", "result": "no toxicity"}
    ]}
  ]
}
